Data on three compounds can be found in patent publication US20230293433A1, “METHOD OF MANUFACTURING MICELLES FOR DRUG DELIVERY” (Wisconsin Alumni Research Foundation, priority 2022, published 2023).

Common to all, as to assay type: physicochemical
Data set [1] in a line: Solubility of PTX in PEG-water mixtures. As to conditions: all examined PEG molecular weights. The source says:
To begin with, we measured the solubility of PTX in mixtures of water and PEG of different molecular weights as a function of water content. Hydrophobic drugs such as PTX are highly soluble in liquid PEG. Addition of water, however, if surpasses a critical point, will result in precipitation of PTX (see FIG. 4). This critical point is positioned near 50.0 wt. % water content (or water:PEG 1:1 w/w ratio) for all the examined molecular weights. In other words, presence of equal or larger amount of water in a PEG-water mixture prohibits PTX solubility. Considering the PEG-assist preparation procedure, the water content always well exceeds the critical value in the final product (ca. 85.0, 92.0 or 96.0 wt. % water content at 1 mg/mL PTX level for 10, 20 or 33 wt. % target loading, respectively). Therefore, PEG-water mixture cannot play any solubilization role for PTX in the proposed system, and the drug is expected to mainly reside in the PEG-b-PLA micelles' core.

A short description of data set [2]: Encapsulation efficiency and drug loading of PEG-assist micelles (centrifugation, HPLC).
Experimental: In order to prepare drug-loaded micelles, PTX (at a weight ratio of 1:2 w/w PTX: PEG4kDa-b-PLA2.2kDa corresponding to target loading of ca. 33 wt. %) was added to the mixture prior to heating to 60° C. The amount of water when PTX was present in the formulation was adjusted to aim for 4 mg/mL PTX level. […] The hydration process was performed under different conditions including rapid hydration (vortexing after addition of water) or slow hydration (a two-step hydration protocol consisting of addition of half of the target water volume followed by mixing and then addition of the rest followed by gentle mixing at 50 rpm in a rotary mixer). Micelles with the target loadings of 10 and 20 wt. % as well as 1 mg/mL PTX target level were prepared after optimizing the process parameters and used for other experiments such as stability measurement, scalability study and freeze-drying. To prepare formulations with 1 mg/mL PTX target level at 10 or 20 wt. % target loading, 1 mg PTX together with 9 or 4 mg copolymer were mixed with 170 or 75 mg PEG, respectively, and heated to 60° C. to obtain a transparent mixture. The added amounts of PEG keep the block copolymer concentration at 5.0 wt. % in the mixture. The mixture was cooled down to 40° C., incubated for 2 h followed by hydration with 1 mL DI water at 40° C. to obtain drug-loaded polymeric micelles. The samples were cooled down to room temperature and analyzed.
To measure the encapsulation efficiency, unencapsulated drug was first removed by centrifugation at 10000 g for 10 min. Following centrifugation, 50 μl of supernatant for each sample was mixed with 50 μl DI water and 400 μl acetonitrile (ACN). High performance liquid chromatography (HPLC, Prominence, Shimadzu, Japan) equipped with an autosampler, a C18 column and a UV-Vis detector was employed to measure PTX content. PTX was detected at 228 nm absorption wavelength by injecting 10 μl sample through an 80/20 ACN/water v/v mixture as the mobile phase under the flow rate of 0.5 mL/min. […]
Data set [3] in a line: Stability of micelle formulations at room temperature. As to conditions: 20 wt. % target loading, 1 mg/mL, PEG1000, 40° C. On the procedure: We considered stability, applicability to other drugs and copolymers, scalability and long-term preservation as four more criteria to evaluate the PEG-assist method. The stability of PTX-loaded PEG-b-PLA micelles prepared at 20 wt. % target loading with 1 mg/mL target PTX level is shown in FIG. 9A. All the samples were prepared at saturation temperature i.e. 40° C. […] In other words, PTX remains soluble after 8 hours incubation at room temperature without any significant loss for any of the PEG molecular weights (p>0.05). […] We observed that all the samples were completely transparent without any visual precipitation within the 8 h time frame. […] The inherent incompatibility of PTX with the micelle core can be alleviated using acyl and ester prodrug strategies for physical loading purposes [Tam, Y. T., et al., “Poly (ethylene glycol)-block-poly (d, 1-lactic acid) micelles containing oligo (lactic acid) 8-paclitaxel prodrug: In Vivo conversion and antitumor efficacy” J. Control. Rel., 2019. 298:186-193; Tam, Y. T., J. Gao, and G. S. Kwon, “Oligo (lactic acid) n-paclitaxel prodrugs for poly (ethylene glycol)-block-poly (lactic acid) micelles: loading, release, and backbiting conversion for anticancer activity” J. Am. […]
The samples in Example 16, were monitored for stability after reconstitution. The particle size and PdI was measured at different time points (1, 2 and 7 days).

Data set [4] is described as follows: Particle size, PdI and zeta potential by dynamic light scattering. To be noted: PROTAC-loaded PEG-b-PLA micelles, PEG1000, hydrated at 40° C. The procedure:
Dynamic light scattering (DLS, nano ZS, Malvern) was used to measure particle size distribution and to investigate micelle formation. For particle size analysis, the measurements were carried out at 25° C. using water as dispersant.

Setting [5] is: PROTAC-loaded PEG-b-PLA micelles, PEG1000, hydrated at 40° C.

With `CC(=O)O[C@H]1C(=O)[C@@]2(C)[C@H]([C@H](OC(=O)c3ccccc3)[C@]3(O)C[C@H](OC(=O)[C@H](O)[C@@H](NC(=O)c4ccccc4)c4ccccc4)C(C)=C1C3(C)C)[C@]1(OC(C)=O)CO[C@@H]1C[C@@H]2O` [PTX, Paclitaxel], the “critical water content of PEG-water mixture above which PTX precipitates” value in data set [1] is given as ~50.0 wt. %.
Consider `C=CCNC1=C2C[C@@H](C)C[C@H](OC)[C@H](O)[C@@H](C)/C=C(\C)[C@H](OC(N)=O)[C@@H](OC)/C=C\C=C(/C)C(=O)NC(=CC1=O)C2=O` [Sample 17AAG], for which the encapsulation efficiency in data set [2] (17AAG, 20 wt. % target loading, 1 mg/mL, PEG1000, 40° C.) is recorded as 80.2±2.1%. The “time stable at room temperature” value in data set [3] was “at least 24 h”.
As for `COc1cc2ncnc(Nc3ccc(F)c(Cl)c3)c2cc1OCCCCCOCCOCCC(=O)N[C@H](C(=O)N1C[C@H](O)C[C@H]1C(=O)NCc1ccc(-c2scnc2C)cc1)C(C)(C)C` [Gefitinib-based PROTAC3], in data set [2] (setting [5]), the “% Drug Loading” value came out at 17.2% and the “% Encapsulation Efficiency” value was determined as 83.0%. In data set [4], this compound displayed a PdI of 0.208, a Size of 34.1 ± 6.5 nm and a Zeta potential of 3.39 ± 14.2 mV.
